From the NIST ThermoML archive (doi:10.1016/j.jct.2016.12.032)
± gives the expanded uncertainty stated by the source.

Test: xn = mol fraction of the nth substance listed
Conditions: 100 kPa, Liquid; for viscosity: Capillary tube (Ostwald / Ubbelohde) method; for mass density: Vibrating tube method

CC1CC(=O)O1 (stereo not drawn) [4-methyl-2-oxetanone] + CCCC[n+]1ccn(C)c1.O=S(=O)([N-]S(=O)(=O)C(F)(F)F)C(F)(F)F
Conditions | mass density [kg/m3] | viscosity [mPa·s]
293.15 K, x2 = 0 | 1055.93 ± 2 | 1.68 ± 0.07
293.15 K, x2 = 0.0493 | 1119.77 ± 2.6 | 2.14 ± 0.09
293.15 K, x2 = 0.1001 | 1167.52 ± 2.4 | 2.75 ± 0.11
293.15 K, x2 = 0.1526 | 1207.48 ± 2.3 | 3.44 ± 0.14
293.15 K, x2 = 0.2001 | 1240.41 ± 2.2 | 4.75 ± 0.2
293.15 K, x2 = 0.3001 | 1291.51 ± 2.1 | 7.22 ± 0.3
293.15 K, x2 = 0.4013 | 1329.17 ± 2.1 | 10.69 ± 0.44
293.15 K, x2 = 0.5004 | 1358.85 ± 2.1 | 15.69 ± 0.64
293.15 K, x2 = 0.5995 | 1382.95 ± 2 | 22.26 ± 0.91
293.15 K, x2 = 0.6929 | 1401.02 ± 2 | 29.27 ± 1.2
293.15 K, x2 = 0.814 | 1415.81 ± 2 | 40.15 ± 1.6
293.15 K, x2 = 0.9001 | 1434.72 ± 2 | 50.31 ± 2
298.15 K, x2 = 0 | 1050.68 ± 2 | 1.55 ± 0.06
298.15 K, x2 = 0.0493 | 1114.58 ± 2.6 | 1.97 ± 0.08
298.15 K, x2 = 0.1001 | 1162.33 ± 2.4 | 2.52 ± 0.1
298.15 K, x2 = 0.1526 | 1202.28 ± 2.3 | 3.17 ± 0.13
298.15 K, x2 = 0.2001 | 1235.24 ± 2.2 | 4.38 ± 0.18
298.15 K, x2 = 0.3001 | 1286.4 ± 2.1 | 6.59 ± 0.27
298.15 K, x2 = 0.4013 | 1324.12 ± 2.1 | 9.61 ± 0.39
298.15 K, x2 = 0.5004 | 1353.84 ± 2.1 | 13.44 ± 0.55
298.15 K, x2 = 0.5995 | 1377.94 ± 2 | 18.55 ± 0.76
298.15 K, x2 = 0.6929 | 1396.05 ± 2 | 24.32 ± 0.99
298.15 K, x2 = 0.814 | 1410.84 ± 2 | 32.91 ± 1.3
298.15 K, x2 = 0.9001 | 1429.79 ± 2 | 41.25 ± 1.7
303.15 K, x2 = 0 | 1045.31 ± 2 | 1.48 ± 0.06
303.15 K, x2 = 0.0493 | 1109.25 ± 2.6 | 1.83 ± 0.08
303.15 K, x2 = 0.1001 | 1157.05 ± 2.4 | 2.3 ± 0.1
303.15 K, x2 = 0.1526 | 1197 ± 2.3 | 2.98 ± 0.12
303.15 K, x2 = 0.2001 | 1229.97 ± 2.2 | 3.9 ± 0.16
303.15 K, x2 = 0.3001 | 1281.21 ± 2.1 | 5.87 ± 0.24
303.15 K, x2 = 0.4013 | 1318.98 ± 2.1 | 8.14 ± 0.33
303.15 K, x2 = 0.5004 | 1348.71 ± 2 | 11.56 ± 0.47
303.15 K, x2 = 0.5995 | 1372.86 ± 2 | 15.74 ± 0.64
303.15 K, x2 = 0.6929 | 1390.95 ± 2 | 20.81 ± 0.85
303.15 K, x2 = 0.814 | 1405.72 ± 2 | 27.46 ± 1.1
303.15 K, x2 = 0.9001 | 1424.69 ± 2 | 34.24 ± 1.4
308.15 K, x2 = 0 | 1039.85 ± 2 | 1.4 ± 0.06
308.15 K, x2 = 0.0493 | 1103.89 ± 2.6 | 1.73 ± 0.07
308.15 K, x2 = 0.1001 | 1151.73 ± 2.4 | 2.13 ± 0.09
308.15 K, x2 = 0.1526 | 1191.76 ± 2.3 | 2.78 ± 0.11
308.15 K, x2 = 0.2001 | 1224.72 ± 2.2 | 3.51 ± 0.15
308.15 K, x2 = 0.3001 | 1276.02 ± 2.1 | 5.33 ± 0.22
308.15 K, x2 = 0.4013 | 1313.79 ± 2.1 | 7.28 ± 0.3
308.15 K, x2 = 0.5004 | 1343.59 ± 2 | 10.05 ± 0.41
308.15 K, x2 = 0.5995 | 1367.78 ± 2 | 13.61 ± 0.55
308.15 K, x2 = 0.6929 | 1385.91 ± 2 | 17.63 ± 0.72
308.15 K, x2 = 0.814 | 1400.7 ± 2 | 23.24 ± 0.94
308.15 K, x2 = 0.9001 | 1419.71 ± 2 | 28.09 ± 1.1
313.15 K, x2 = 0 | 1034.33 ± 2 | 1.33 ± 0.05
313.15 K, x2 = 0.0493 | 1098.48 ± 2.6 | 1.63 ± 0.07
313.15 K, x2 = 0.1001 | 1146.34 ± 2.4 | 1.99 ± 0.08
313.15 K, x2 = 0.1526 | 1186.34 ± 2.3 | 2.55 ± 0.11
313.15 K, x2 = 0.2001 | 1219.4 ± 2.2 | 3.21 ± 0.13
313.15 K, x2 = 0.3001 | 1270.76 ± 2.1 | 4.72 ± 0.19
313.15 K, x2 = 0.4013 | 1308.61 ± 2.1 | 6.41 ± 0.26
313.15 K, x2 = 0.5004 | 1338.44 ± 2 | 8.82 ± 0.36
313.15 K, x2 = 0.5995 | 1362.65 ± 2 | 11.75 ± 0.48
313.15 K, x2 = 0.6929 | 1380.83 ± 2 | 15.03 ± 0.61
313.15 K, x2 = 0.814 | 1395.6 ± 2 | 19.76 ± 0.8
313.15 K, x2 = 0.9001 | 1414.64 ± 2 | 23.76 ± 0.97
318.15 K, x2 = 0 | 1028.79 ± 2 | 1.25 ± 0.05
318.15 K, x2 = 0.0493 | 1093.01 ± 2.6 | 1.53 ± 0.06
318.15 K, x2 = 0.1001 | 1140.96 ± 2.4 | 1.86 ± 0.08
318.15 K, x2 = 0.1526 | 1181.02 ± 2.3 | 2.36 ± 0.1
318.15 K, x2 = 0.2001 | 1214.09 ± 2.2 | 2.94 ± 0.12
318.15 K, x2 = 0.3001 | 1265.51 ± 2.1 | 4.23 ± 0.17
318.15 K, x2 = 0.4013 | 1303.39 ± 2.1 | 5.76 ± 0.24
318.15 K, x2 = 0.5004 | 1333.28 ± 2 | 7.74 ± 0.32
318.15 K, x2 = 0.5995 | 1357.54 ± 2 | 10.26 ± 0.42
318.15 K, x2 = 0.6929 | 1375.74 ± 2 | 13.01 ± 0.53
318.15 K, x2 = 0.814 | 1390.55 ± 2 | 16.82 ± 0.68
318.15 K, x2 = 0.9001 | 1409.63 ± 2 | 20.35 ± 0.83
323.15 K, x2 = 0 | 1023.19 ± 2 | 1.18 ± 0.05
323.15 K, x2 = 0.0493 | 1087.48 ± 2.6 | 1.46 ± 0.06
323.15 K, x2 = 0.1001 | 1135.51 ± 2.4 | 1.72 ± 0.07
323.15 K, x2 = 0.1526 | 1175.61 ± 2.3 | 2.21 ± 0.09
323.15 K, x2 = 0.2001 | 1208.72 ± 2.2 | 2.7 ± 0.11
323.15 K, x2 = 0.3001 | 1260.23 ± 2.1 | 3.92 ± 0.16
323.15 K, x2 = 0.4013 | 1298.21 ± 2.1 | 5.18 ± 0.21
323.15 K, x2 = 0.5004 | 1328.11 ± 2 | 6.91 ± 0.28
323.15 K, x2 = 0.5995 | 1352.41 ± 2 | 9.02 ± 0.37
323.15 K, x2 = 0.6929 | 1370.64 ± 2 | 11.4 ± 0.46
323.15 K, x2 = 0.814 | 1385.49 ± 2 | 14.41 ± 0.59
323.15 K, x2 = 0.9001 | 1404.58 ± 2 | 17.27 ± 0.7
